Measured values from paper PMC8204636 (ACS chemical biology, 2020).

Target: Cdk2 (Homo sapiens, UniProt P24941)
Assay: p-Cl-ANS fluorescent binding assay
Conditions: for cooperativity with the allosteric ANS site: based on p-Cl-ANS fluorescent binding studies; for effect on the binding (fluorescence) of p-Cl-ANS: orthosteric ligand titrated into Cdk2 with p-Cl-ANS

## Nc1ncnc2c1ncn2[C@@H]1O[C@H](COP(=O)(O)OP(=O)(O)NP(=O)(O)O)[C@@H](O)[C@H]1O [AMP-PNP, adenylyl-imidodiphosphate]
  cooperativity with the allosteric ANS site: only weakly cooperative, if at all
  effect on the binding (fluorescence) of p-Cl-ANS: little effect

## Nc1ncnc2c1ncn2[C@@H]1O[C@H](COP(=O)(O)OP(=O)(O)OP(=O)(O)O)[C@@H](O)[C@H]1O [ATP]
  cooperativity with the allosteric ANS site: only weakly cooperative, if at all
  effect on the binding (fluorescence) of p-Cl-ANS: little effect
